Laboratory results published in US10577373B2, “TYK2 inhibitors and uses thereof” (Nimbus Lakshmi, Inc., priority 2017, dated 2020).
Like-named read-outs stand apart in the source and are kept apart here.

Assays:
[1] = tested on: IL-12 induced STAT4 phophorylation mediated by Tyk2/JAK2 (heterodimeric complex); experiment: IL-12 Induced pSTAT4 in Human PBMC; type: cell-based; settings: 1.7 ng/mL IL-12
Source text: The IL-12 Induced pSTAT4 assay evaluates the inhibition of IL-12 induced STAT4 phophorylation mediated by Tyk2/JAK2 (heterodimeric complex).

[2] = tested on: GM-CSF induced STAT5 phosphorylation mediated by the JAK2/JAK2 homdimeric complex; experiment: GM-CSF Induced pSTAT5 in Human PBMC; settings: GM-CSF 5 ng/mL for 20 minutes, pSTAT5
Source text: Human PBMC are isolated from buffy coat and are stored frozen for assays as needed.

[3] = Homo sapiens, PBMC, 20 min, read-out: PBMC_GMCSF_pSTAT5 IC50, human PBMC
[4] = read-out: PBMC_GMCSF_pSTAT5 IC50, human PBMC

| Compound | IC50 [1] | IC50 [2, 3] | other results |
| --- | --- | --- | --- |
| CNc1cc(Nc2cccn(-c3ccc(F)cc3)c2=O)nc2c(C(N)=O)cnn12 [I-9] | 100 to 500 nM | – | – |
| CNc1cc(Nc2cccn([C@@H]3CCCOC3)c2=O)nc2c(C(=O)NC3CC3)cnn12 [I-351] | < 100 nM | – | – |
| CNc1cc(Nc2cccn([C@H]3CC[C@@](C)(O)CC3)c2=O)nc2c(C(=O)N[C@H]3C[C@H]3F)cnn12 [I-370] | < 100 nM | – | – |
| CNc1cc(Nc2cccn([C@H]3CC[C@](C)(O)CC3)c2=O)nc2c(C(=O)NC3CC3)cnn12 [I-371] | 100 to 500 nM | – | – |
| CNc1cc(Nc2cccn([C@H]3CC[C@](C)(O)CC3)c2=O)nc2c(C(=O)N[C@H]3C[C@H]3F)cnn12 [I-372] | < 100 nM | – | – |
| CNc1cc(Nc2cccn(-c3nn(C)cc3C)c2=O)nc2c(C(=O)NC3CC3)cnn12 [I-404] | > 1000 nM | – | – |
| CNc1cc(Nc2cccn(-c3nn(C)cc3C)c2=O)nc2c(C(=O)N[C@H]3C[C@H]3F)cnn12 [I-405] | 100 to 500 nM | – | – |
| [2H]C([2H])([2H])Oc1ncccc1Nc1cc(NC)n2ncc(C(=O)N[C@H]3CC[C@@H]3O)c2n1 [I-411] | < 100 nM | – | – |
| CNc1cc(Nc2cccn([C@H]3CCC[C@@H](OC)C3)c2=O)nc2c(C(=O)NCC(C)(C)CO)cnn12 [I-861] | < 100 nM | – | – |
| CNc1cc(Nc2cccn(-c3ncccc3F)c2=O)nc2c(C(=O)O)cnn12 [I-893, 5-((3′-fluoro-2-oxo-2H-[1,2′-bipyridin]-3-yl)amino)-7-(methylamino) pyrazolo[1,5-a]pyrimidine-3-carboxylic acid] | > 1000 nM | – | – |
| CNc1cc(Nc2cccn([C@H]3CCCN(CCF)C3)c2=O)nc2c(C(=O)N[C@@H]3C[C@@H]3F)cnn12 [I-900] | < 100 nM | – | – |
| CNc1cc(-c2cn(C3CCOCC3)c3ncccc23)nc2c(C(=O)NC3CCC3O)cnn12 (stereo not shown) [I-1048, N-(2-hydroxycyclobutyl)-7-(methylamino)-5-(1-(tetrahydro-2H-pyran-4-yl)-1H-pyrrolo[2,3-b]pyridin-3-yl)pyrazolo[1,5-a]pyrimidine-3-carboxamide] | – | > 2500 nM | – |
| CNc1cc(Nc2cccn([C@H]3CCN(CCF)C3)c2=O)nc2c(C(=O)N[C@H]3CC[C@@H]3OC)cnn12 [I-1050, 5-((1-((S)-1-(2-fluoroethyl)pyrrolidin-3-yl)-2-oxo-1,2-dihydropyridin-3-yl)amino)-N-((1 S,2S)-2-methoxycyclobutyl)-7-(methylamino)pyrazolo[1,5-a]pyrimidine-3-carboxamide] | – | > 50000 nM | – |
| CNc1cc(Nc2cccc3ocnc23)nc2c(C(=O)NC3CCC3OC)cnn12 (stereo not shown) [I-1051, 5-(benzo[d]oxazol-4-ylamino)-N-(2-methoxycyclobutyl)-7-(methylamino) pyrazolo[1,5-a]pyrimidine-3-carboxamide] | – | > 50000 nM | – |
| CNc1cc(Nc2cccn3ccnc23)nc2c(C(=O)N[C@H]3CC[C@@H]3OC)cnn12 [I-1052] | – | > 50000 nM | – |
| CNc1cc(-c2cn(C(C)C)c3ncc(F)cc23)nc2c(C(=O)N[C@H]3CC[C@@H]3OC)cnn12 [I-1053, 5-(5-fluoro-1-isopropyl-1H-pyrrolo[2,3-b]pyridin-3-yl)-N-((1S,2S)-2-methoxycyclobutyl)-7-(methylamino)pyrazolo[1,5-a]pyrimidine-3-carboxamide] | – | > 12500 nM | – |
| CNc1cc(Nc2cccn([C@H]3CCCC[C@H]3O)c2=O)nc2c(C(=O)N[C@@H]3CC[C@H]3OC)cnn12 [I-1057] | – | > 50000 nM | – |
| CNc1cc(Nc2cccn([C@H]3CCCN(CCF)C3)c2=O)nc2c(C(=O)N[C@@H]3CC[C@H]3OC)cnn12 [I-1059] | – | > 50000 nM | – |
| CNc1cc(Nc2cccn([C@H]3CCC[C@H](O)C3)c2=O)nc2c(C(=O)N[C@H]3CC[C@@H]3OC)cnn12 [I-1063] | – | > 50000 nM | – |

| Compound | IC50 [1] | IC50 [2, 3] | other results |
| --- | --- | --- | --- |
| CNc1cc(Nc2cccn(-c3cnn(C)c3F)c2=O)nc2c(C(=O)N[C@H]3CC[C@@H]3OC)cnn12 [I-1066] | – | > 50000 nM | – |
| CNc1cc(Nc2cccn(-c3ncc(C)s3)c2=O)nc2c(C(=O)N[C@@H]3CC[C@H]3O)cnn12 [I-1070] | – | > 12500 nM | – |
| CNc1cc(Nc2cccn(-c3ncc(C)s3)c2=O)nc2c(C(=O)N[C@@H]3CC[C@@H]3O)cnn12 [I-1073] | – | – | IC50 [2, 4]: > 50000 nM |
| CNc1cc(Nc2cccn([C@@H]3CCC[C@H](OC)C3)c2=O)nc2c(C(=O)N[C@@H]3CC[C@H]3OC)cnn12 [I-1082] | – | – | IC50 [2, 4]: > 50000 nM |
| CNc1cc(Nc2cccn([C@H]3[C@@H]4COC[C@@H]43)c2=O)nc2c(C(=O)N[C@H]3CC[C@@H]3OC)cnn12 [I-1088] | – | > 50000 nM | – |
| CNc1cc(Nc2cccn([C@@H]3CC[C@H]3O)c2=O)nc2c(C(=O)N[C@H]3CC[C@@H]3OC)cnn12 [I-1093] | – | > 50000 nM | – |
| CNc1cc(Nc2cccn([C@H]3CC[C@@H]3O)c2=O)nc2c(C(=O)N[C@H]3CC[C@@H]3OC)cnn12 [I-1094] | – | > 50000 nM | – |
| CNc1cc(Nc2cccn([C@@H]3CCCN(CCF)C3)c2=O)nc2c(C(=O)N[C@@H]3CC[C@H]3OC)cnn12 [I-1095] | – | > 50000 nM | – |
| CNc1cc(Nc2cccn([C@@H]3CCN(CCF)C3)c2=O)nc2c(C(=O)NC3CCC3OC)cnn12 (stereo partly drawn) [I-1096, 5-((1-((R)—1-(2-fluoroethyl)pyrrolidin-3-yl)-2-oxo-1,2-dihydropyridin-3-yl)amino)-N-(2-methoxycyclobutyl)-7-(methylamino)pyrazolo[1,5-a]pyrimidine-3-carboxamide] | – | > 50000 nM | – |
| CNc1cc(Nc2cccn([C@H]3CCCC[C@H]3OC)c2=O)nc2c(C(=O)N[C@H]3CC[C@@H]3OC)cnn12 [I-1097] | – | > 50000 nM | – |
| CNc1cc(Nc2cccn([C@H]3CCC[C@H](OC)C3)c2=O)nc2c(C(=O)N[C@H]3CC[C@@H]3OC)cnn12 [I-1098] | – | > 50000 nM | – |
| CNc1cc(Nc2cccn([C@@H]3CCC[C@@H](OC)C3)c2=O)nc2c(C(=O)N[C@H]3CC[C@@H]3OC)cnn12 [I-1099] | – | > 50000 nM | – |
| CNc1cc(Nc2cccn([C@H]3CCC[C@H]3O)c2=O)nc2c(C(=O)N[C@H]3CC[C@@H]3OC)cnn12 [I-1101] | – | > 50000 nM | – |
| CNc1cc(Nc2cccn3cnnc23)nc2c(C(=O)N[C@H]3CC[C@@H]3OC)cnn12 [I-1102] | – | > 2500 nM | – |
| CNc1cc(Nc2cccn([C@H]3CC[C@](C)(OC)CC3)c2=O)nc2c(C(=O)N[C@H]3CC[C@@H]3OC)cnn12 [I-1105] | – | > 50000 nM | – |
| CNc1cc(Nc2cccn([C@H]3CC[C@](C)(OC)CC3)c2=O)nc2c(C(=O)N[C@@H]3CC[C@H]3O)cnn12 [I-1107] | – | – | IC50 [2, 4]: > 2500 nM |
| CNc1cc(Nc2cccn3ccnc23)nc2c(C(=O)N[C@@H]3CC[C@H]3OC)cnn12 [I-1133] | < 100 nM | – | – |
| CNc1cc(-c2cn([C@H]3CCCOC3)c3ncccc23)nc2c(C(=O)N[C@H]3CC[C@@H]3OC)cnn12 [I-1283] | < 100 nM | – | – |
| CNc1cc(Nc2cccn(-c3ccccn3)c2=O)nc2c(C(=O)N[C@@H]3C[C@H]3OC)cnn12 [I-1286] | < 100 nM | – | – |

More lines, main results first:

| IC50 [1] | IC50 [2, 3] | Compound | other results |
| --- | --- | --- | --- |
| < 100 nM | – | CNc1cc(Nc2cccn([C@H]3CCC[C@@H](O)C3)c2=O)nc2c(C(=O)N[C@H]3CC[C@@H]3OC)cnn12 [I-1296] | – |
| < 100 nM | – | CNc1cc(-c2cn(CCCO)c3ncccc23)nc2c(C(=O)N[C@@H]3CC[C@H]3OC)cnn12 [I-1299] | – |
| < 100 nM | – | CNc1cc(Nc2cccn([C@@H]3CC[C@H]3O)c2=O)nc2c(C(=O)N[C@@H]3CC[C@H]3OC)cnn12 [I-1309] | – |
| < 100 nM | – | CNc1cc(-c2cn(C3CCOCC3)c3ncc(F)cc23)nc2c(C(=O)N[C@H]3CC[C@@H]3O)cnn12 [I-1314] | – |
| < 100 nM | – | CNc1cc(Nc2cccn(-c3nn(C)cc3F)c2=O)nc2c(C(=O)N[C@@H]3C[C@@H]3F)cnn12 [I-1321] | – |
| < 100 nM | – | CNC(=O)c1occc1Nc1cc(NC)n2ncc(C(=O)N[C@H]3CC[C@@H]3OC)c2n1 [I-1323] | – |
| < 100 nM | – | CNc1cc(-c2cn(C3CC3)c3ncccc23)nc2c(C(=O)N[C@H]3CC[C@@H]3OC)cnn12 [I-1325] | – |
| < 100 nM | – | CNc1cc(-c2cn(C3CCOCC3)c3ncccc23)nc2c(C(=O)N[C@@H]3CC[C@H]3OC)cnn12 [I-1328] | – |
| < 100 nM | – | CNc1cc(Nc2cccn([C@@H]3CCC[C@@H](OC)C3)c2=O)nc2c(C(=O)N[C@H]3CC[C@@H]3OC)cnn12 [I-1331] | – |
| < 100 nM | – | CNc1cc(Nc2cccn([C@@H]3CCN(CCF)C3)c2=O)nc2c(C(=O)N[C@@H]3CC[C@H]3OC)cnn12 [I-1333] | – |
| < 100 nM | – | CNc1cc(Nc2cccn3cnnc23)nc2c(C(=O)N[C@H]3CC[C@@H]3OC)cnn12 [I-1343] | – |
| < 100 nM | – | CNc1cc(Nc2cccn([C@@H]3CC[C@@H]3O)c2=O)nc2c(C(=O)N[C@@H]3CC[C@H]3OC)cnn12 [I-1350] | – |
| < 100 nM | – | CNc1cc(Nc2cccn([C@H]3[C@@H]4COC[C@@H]43)c2=O)nc2c(C(=O)N[C@@H]3CC[C@H]3OC)cnn12 [I-1354] | – |
| < 100 nM | – | CNc1cc(-c2cn([C@@H]3CCCOC3)c3ncccc23)nc2c(C(=O)N[C@H]3CC[C@@H]3OC)cnn12 [I-1364] | – |
| < 100 nM | – | CNc1cc(-c2cn([C@H]3CCCOC3)c3ncccc23)nc2c(C(=O)N[C@H]3CC[C@@H]3OC)cnn12 [I-1365] | – |
| < 100 nM | – | CNc1cc(-c2cn([C@@H]3CCN(CCF)C3)c3ncccc23)nc2c(C(=O)N[C@@H]3C[C@@H]3F)cnn12 [I-1366] | – |
| < 100 nM | – | CNc1cc(Nc2cccn(-c3cnn(C)c3F)c2=O)nc2c(C(=O)N[C@H]3CC[C@@H]3OC)cnn12 [I-1369] | – |
| < 100 nM | – | CNc1cc(Nc2cccn([C@H]3CCC[C@H]3O)c2=O)nc2c(C(=O)N[C@H]3CC[C@@H]3OC)cnn12 [I-1373] | – |
| < 100 nM | – | CNc1cc(Nc2cccn([C@H]3CCC[C@H](OC)C3)c2=O)nc2c(C(=O)N[C@@H]3CC[C@H]3OC)cnn12 [I-1374] | – |
| < 100 nM | – | CNc1cc(Nc2cccn([C@H]3CCCC[C@H]3OC)c2=O)nc2c(C(=O)N[C@H]3CC[C@@H]3OC)cnn12 [I-1377] | – |
| < 100 nM | – | CNc1cc(Nc2cccn([C@H]3CCN(CCF)C3)c2=O)nc2c(C(=O)N[C@H]3CC[C@@H]3OC)cnn12 [I-1381] | – |
| < 100 nM | – | CNc1cc(Nc2cccn([C@@H]3CCCN(CCF)C3)c2=O)nc2c(C(=O)N[C@H]3CC[C@@H]3OC)cnn12 [I-1382] | – |
| < 100 nM | – | CNc1cc(Nc2cccn([C@H]3CC[C@@H]3O)c2=O)nc2c(C(=O)N[C@H]3CC[C@@H]3OC)cnn12 [I-1385] | – |
